According to US20200276150A1, “PARENTERAL FORMULATIONS OF MACROLIDE ANTIBIOTICS” (Tetard, Inc., priority 2010, published 2020):
Converted amounts (≈) assume the structure as drawn. “Also recorded” adds a separate entry of the source.

Key:
[1] = Saturated solubility of CEM-101 in a range of vehicles (Example 5); assay type: physicochemical; conditions: for solubility at 72 h: thermodynamic from solid, mixed 72 hours, HPLC
Protocol: EXAMPLE 5. Solubility of CEM-101 in a Range of Vehicles. […] Additional CEM-101 is added to vehicles which completely solubilized the CEM-101 API within 24 hours. Samples are allowed to mix for a total of 72 hours. Once mixed, the samples are assessed visually, centrifuged and then diluted to appropriate concentration for analysis by HPLC to determine saturated solubility. Without being bound by theory, it is believed herein that the vehicles are in situ salt forming compounds when mixed with CEM-101. Studies were conducted by weighing approximately 1000 mg of each vehicle into a number of vials. A known amount of CEM-101 was then added into each vial and the resulting mixture was mixed on a vortex prior to mixing overnight on a roller mixer.

[2] = CEM-101 in 60 mM tartaric acid with and without 0.9% NaCl, concentration by HPLC (Examples 3A, 3B); assay type: physicochemical
Protocol: EXAMPLE 3A. […] On addition of NaCl, the resultant solution went clear on mixing for an hour (53.0 mg/mL by HPLC). […] EXAMPLE 3B. Compositions of CEM-101 in an Unbuffered Solution for Parenteral Administration and Studies in 0.9% NaCl solution (˜8% w/v CEM-101). Approximately 90 mg CEM-101 was dissolved in 1 mL 60 mM tartaric acid pH 2.16 and allowed to mix overnight.

[3] = IV administration to monkeys, observation for pain response (Example 10); assay type: in vivo, Cynomolgus monkeys (Macaca fasicularis); conditions: IV infusion about 90 minutes, 5, 12.5, 25 mg/kg/d
Protocol: EXAMPLE 10. Pharmacokinetics (PK) in monkeys following IV administration. […] The plasma level of CEM-101 and toxicokinetics at 0-24 hours is measured (venipuncture, predose, then immediately following completion of infusion at 0, 0.5, 1, 4, 8, and 24 hours). Animal body weight is also periodically measured. […] Total dose volume is 15 mL/kg, and intravenous infusion is carried out over about 90 minutes (10 mL/kg/h) via disposable indwelling catheter into one of the brachial and/or saphenous veins. Vein or vein location is changed at least every seven days. Control animals receive vehicle alone. An illustrative formulation is CEM-101 in the following vehicle comprising or consisting essentially of L(+)-tartaric acid, D-mannitol, SWFI, 1N HaOH, and optionally 1-thioglycerol, as described herein. Following dosing, a portion of the animals are immediately euthanized for necropsy evaluation. A “recovery” group is observed for an additional 28 days without dosing, then euthanized for necropsy evaluation. It is appreciated that both monkeys and dogs elicit particular sensitivity to pain, and therefore may be observed for pain response upon administration of the test articles.

[4] = IV administration to dogs, observation for pain response (Example 11); assay type: in vivo, Beagle dogs (Canis familiaris); conditions: IV infusion about 90 minutes, 5, 10, 15 mg/kg/d
Protocol: EXAMPLE 11. Pharmacokinetics (PK) in dogs following IV administration. […] The plasma level of CEM-101 and toxicokinetics at 0-24 hours is measured (jugular venipuncture, predose, then immediately following completion of infusion at 0, 0.5, 1, 4, 8, and 24 hours). Animal body weight is also periodically measured. […] Total dose volume is 15 mL/kg, and intravenous infusion is carried out over about 90 minutes (10 mL/kg/h) via disposable indwelling catheter into one of the cephalic and/or saphenous veins. Vein or vein location is changed at least every seven days. Control animals receive vehicle alone. An illustrative formulation is CEM-101 in the following vehicle comprising or consisting essentially of L(+)-tartaric acid, D-mannitol, SWFI, 1N HaOH, and optionally 1-thioglycerol, as described herein. Following dosing, a portion of the animals are immediately euthanized for necropsy evaluation. A “recovery” group is observed for an additional 28 days without dosing, then euthanized for necropsy evaluation. It is appreciated that both monkeys and dogs elicit particular sensitivity to pain, and therefore may be observed for pain response upon administration of the test articles.

[5] = QT effects of CEM-101 (statement, no method); conditions: compared to other macrolides and ketolides
[6] = Cardiac tissue levels of CEM-101 (statement, no method); conditions: compared to other macrolides and ketolides
[7] = tested on: azithromycin-resistant strains; test: Antibacterial activity compared with azithromycin (statement, no method); assay type: cell-based
[8] = Excipient compatibility by HS-MCDSC (Example 8); assay type: physicochemical; conditions: API-excipient binary pair with CEM-101, 1:1 ratio, 30-80° C.
Protocol: EXAMPLE 8. Determination of Compatibility of Excipients for Lyophilized Pharmaceutical Composition. Excipient compatibility is assessed using high sensitivity multi-cell differential scanning calorimetry (HS-MCDSC). The high sensitivity multi-cell differential scanning calorimeter is an analytical instrument designed to measure heat capacity and changes in heat capacity as a function of temperature.
Stability (of an individual component) is usually assessed by loading a sample of the material into a cell and measuring the heat-flow as a function of time. The instrument should rapidly detect any degradation processes occurring, and the absence of any heat responses gives confidence that the system under investigation is stable.
A similar approach can be adopted for testing binary mixtures of the active pharmaceutical ingredient (API) and excipients. […] Any unexpected power change recorded in the drug-excipient mixture indicates a possible interaction between the two components.
Calorimetric data were recorded using a high sensitivity MCDSC (CSC Model 4100 MCDSC, USA). Samples were run using API alone (ca. 50 mg), excipients alone (ca. 50 mg) and API-Excipient binary pairs (ca. 25 mg:25 mg, 1:1 ratio). Samples were weighed directly into the cells which were sealed with the metal caps provided and a rubber sealing disc to ensure an air-tight seal. Experiments were programmed as follows:
The MCDSC consists of four cells contained in a loading chamber. The cells 1, 2 and 3 were filled with samples, while the 4th cell is always left empty and run as a blank. Prior to analysis, cells 1 to 3 were run empty with no samples to record the blank results which were then subtracted from subsequent results obtained from samples analysed. Data were recorded every 10 s using the dedicated software package CpCalc. Data analysis was performed using CpCalc and Microsoft Excel.
The calorimeter records all the events occurring in each of the sample cell. The approach adopted here was to calculate the power-time data obtained for the active and excipients alone. The calculated data is then used to create an ‘expected’ theoretical trace as an average of the signals coming from both API and excipients at a mixture of 1:1 ratio.

[9] = Freeze drying, visual observation of the cakes (Example 9); assay type: physicochemical; conditions: for Visual observation of the cake: excipient at its maximum concentration in CEM-101 IV solution, frozen -25° C. 2 h, freeze dried 24 h
Protocol: 1 mL of CEM-101 IV solution was dispensed into in a clear glass vial, followed by the careful addition of small amounts of the excipient under investigation (either 50 or 100 mg). The solution in the vials were mixed using a vortex mixer and sonicated until a clear solution was observed. The final data is shown below, and reflects the maximum possible amount of each excipient used in the freeze dried formulations. Subsequently, all clear vials were frozen at −25° C. for 2 h. The caps were then removed and the vials were covered with a small tissue paper and placed in the freeze drier for 24 h (in the dark). The cakes were then inspected and the following visual observations detailed in the table below were made.
Based on the results above, three excipients with no interaction with the API were selected and solutions containing various ratio combinations of the API and excipient were prepared. These solutions were then frozen at −25° C., then lyophilised for 24 h, in the dark. The resultant cakes were then examined visually to determine the integrity of the plugs.

[10] = Storage of lyophilized cakes at 5° C., 25° C./60% RH and 40° C./75% RH; assay type: physicochemical; conditions: 7, 13 and 28 days
Protocol: Cakes were stored at 5° C., 25° C./60% RH and 40° C./75% RH. Samples were evaluated at 7, 13 and 28 days.

[11] = Solubility of each excipient in CEM-101 IV solution (Example 9); assay type: physicochemical; conditions: in 1 mL CEM-101 IV solution (50 mg/mL)
Protocol: EXAMPLE 9. Characterization of properties of excipients for freeze drying to prepare lyophilized pharmaceutical composition. […] The solution in the vials were mixed using a vortex mixer and sonicated until a clear solution was observed. […] The caps were then removed and the vials were covered with a small tissue paper and placed in the freeze drier for 24 h (in the dark).

[12] = HPLC assay and total impurities of formulations (Example 6); assay type: physicochemical
Protocol: Turbid samples were centrifuged prior to analysis. Total Impurities are assessed by % HPLC peak area.

| Compound | MC-DSC Results (No Interaction/Interaction) [8] | Visual observation of lyophilizate ([9]; API:Excipient Ratio 1:1) | Visual observation of lyophilizate ([9]; API:Excipient Ratio 1:2) | Visual observation of lyophilizate ([9]; API:Excipient Ratio 1:3) | Visual observation of lyophilizate ([9]; API:Excipient Ratio 1:4) | Visual observation of the cake [9] | Cake colour on storage [10] | Conc. (mg/mL), maximum possible amount of excipient giving a clear solution [11] [mg/mL] | other results |
| --- | --- | --- | --- | --- | --- | --- | --- | --- | --- |
| CC[C@H]1OC(=O)[C@@](C)(F)C(=O)[C@H](C)[C@@H](O[C@@H]2O[C@H](C)C[C@H](N(C)C)[C@H]2O)[C@@](C)(OC)C[C@@H](C)C(=O)[C@H](C)[C@H]2N(CCCCn3cc(-c4cccc(N)c4)nn3)C(=O)O[C@]12C [CEM-101] |  |  |  |  |  |  |  |  | pH of resultant solution ([1]; CEM-101 in 1M Ascorbic Acid (sample 17)): 1.93; pH of resultant solution ([1]; CEM-101 in 1M Methane sulphonic Acid (sample 16)): 0.03; pH of resultant solution ([1]; CEM-101 in 1M Tartaric Acid (sample 19)): 1.27; solubility at 72 h ([1]; pH 0.03, simulated gastric fluid, vehicle 1M Methane sulphonic Acid (sample 16)): 100 mg/mL (≈ 118 mM); solubility at 72 h ([1]; pH 1.27, simulated gastric fluid, vehicle 1M Tartaric Acid (sample 19)): 100 mg/mL (≈ 118 mM); solubility at 72 h ([1]; pH 1.93, simulated gastric fluid, vehicle 1M Ascorbic Acid (sample 17)): 100 mg/mL (≈ 118 mM); solubility at 72 h ([1]; simulated gastric fluid, vehicle 1M Hydrochloric Acid (sample 15)): 100 mg/mL (≈ 118 mM); Concentration of clear solution by HPLC ([2]; 51.38 mg CEM-101 in 1 mL 60 mM tartaric acid pH 2.16, mixed overnight (5% initial formulation)): 50.4 mg/mL; Concentration by HPLC after addition of 0.9% w/v NaCl ([2]; 5% NaCl formulation, clear on mixing for an hour): 53.0 mg/mL; Concentration by HPLC after addition of 0.9% w/v NaCl ([2]; 8% NaCl formulation, white lump formed, mixed approx. 2 hours): 3.9 mg/mL; solubility ([2]; aqueous buffer, thermodynamic from solid, approx. 90 mg CEM-101 in 1 mL 60 mM tartaric acid pH 2.16, mixed overnight (8% initial formulation), read-out: Saturated solubility by HPLC): 83 mg/mL (≈ 98.2 mM); Pain response upon IV administration [3]: no reaction by the animal was observed; Pain response upon IV administration [4]: no reaction by the animal was observed; QT effects / QT prolongation [5]: do not cause QT prologation; also recorded: low QT effects or no QT effects; Cardiac tissue levels / accumulation [6]: do not accumulate in cardiac tissue; also recorded: do not exhibit high cardiac tissue levels; Activity against azithromycin-resistant strains [7]: active; Potency relative to azithromycin ([7]; more potent than azithromycin): 8-16 times |
| NCC(=O)O [Glycine] | No | Good solid cake- with uniform | Good solid cake- with uniform | Good solid cake- with uniform | Good solid cake- with uniform | Good solid cake- | remained white |  | MC-DSC Results (No Interaction/Interaction) ([8]; listed as glycine): compatible |
| OC[C@@H](O)[C@@H](O)[C@H](O)[C@H](O)CO [Mannitol] | No | Good solid cake- with uniform | Good solid cake- with uniform | Good solid cake- with uniform | Good solid cake- with uniform | Good solid cake- | remained white | 200 | MC-DSC Results (No Interaction/Interaction) ([8]; listed as mannitol): compatible |
| CC[C@H]1OC(=O)[C@@](C)(F)C(=O)[C@H](C)[C@@H](O[C@@H]2O[C@H](C)C[C@H](N(C)C)[C@H]2O)[C@@](C)(OC)C[C@@H](C)C(=O)[C@H](C)[C@H]2N(CCCCn3cc(-c4cccc(N)c4)nn3)C(=O)O[C@]12C [Preformulation] |  |  |  |  |  |  |  |  | Total Impurities [12]: 2.34 % HPLC peak area |
| OC[C@H]1O[C@@](CO)(O[C@H]2O[C@H](CO)[C@@H](O)[C@H](O)[C@H]2O)[C@@H](O)[C@@H]1O [Sucrose] | No | Good solid cake- with uniform | Good solid cake- with uniform | Good solid cake- with uniform | Good solid cake- with uniform |  | Some cake yellowing |  | MC-DSC Results (No Interaction/Interaction) ([8]; listed as sucrose): compatible |
| OC[C@H]1O[C@H](O[C@H]2O[C@H](CO)[C@@H](O)[C@H](O)[C@H]2O)[C@H](O)[C@@H](O)[C@@H]1O [Trehalose] | Interaction |  |  |  |  | Poor cake-puffing |  | 700 |  |
| Isomalt | Interaction |  |  |  |  | Good solid cake- |  | 600 |  |
